In ChEMBL document CHEMBL5131444, “Essential structure of orexin 1 receptor antagonist YNT-707: Conversion of the 16-cyclopropylmethyl group to the 16-sulfonamide group in d-nor-nalfurafine derivatives” (Bioorg Med Chem Lett, 2022) one finds Ki and IC50 data, which are given here for six molecules.

Experiment [1] concerns the target T1, Orexin/Hypocretin receptor type 1 (Homo sapiens, UniProt O43613).
T1 sequence (O43613 whole entry): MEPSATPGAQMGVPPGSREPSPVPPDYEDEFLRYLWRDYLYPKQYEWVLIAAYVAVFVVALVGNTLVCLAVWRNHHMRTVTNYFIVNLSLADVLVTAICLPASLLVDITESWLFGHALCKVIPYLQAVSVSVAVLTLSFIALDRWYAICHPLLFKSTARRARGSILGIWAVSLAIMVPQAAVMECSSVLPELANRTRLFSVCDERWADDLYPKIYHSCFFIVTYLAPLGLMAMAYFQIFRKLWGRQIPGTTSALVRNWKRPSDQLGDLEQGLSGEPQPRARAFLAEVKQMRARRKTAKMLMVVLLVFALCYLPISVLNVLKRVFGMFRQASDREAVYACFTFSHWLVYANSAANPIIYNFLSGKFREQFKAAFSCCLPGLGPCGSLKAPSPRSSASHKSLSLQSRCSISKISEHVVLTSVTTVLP
The experiment can be described thus: Antagonist activity at OX1R (unknown origin) by cell-based calcium assay. The class given is functional.

For experiment [2], the target named is T2, Orexin receptor type 2 (Homo sapiens, UniProt O43614).
T2 sequence (O43614 whole entry): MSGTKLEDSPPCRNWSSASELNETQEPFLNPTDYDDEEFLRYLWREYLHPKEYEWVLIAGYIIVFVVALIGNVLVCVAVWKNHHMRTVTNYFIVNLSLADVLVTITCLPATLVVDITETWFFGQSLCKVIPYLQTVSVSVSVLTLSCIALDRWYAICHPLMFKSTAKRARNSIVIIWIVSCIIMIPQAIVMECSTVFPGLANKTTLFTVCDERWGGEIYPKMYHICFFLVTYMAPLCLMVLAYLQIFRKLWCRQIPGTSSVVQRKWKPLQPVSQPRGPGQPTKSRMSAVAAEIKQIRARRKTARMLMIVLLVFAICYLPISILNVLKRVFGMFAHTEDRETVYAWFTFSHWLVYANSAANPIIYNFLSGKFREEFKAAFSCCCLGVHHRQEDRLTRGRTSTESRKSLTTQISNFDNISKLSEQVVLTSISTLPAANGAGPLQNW
The experiment can be described thus: Antagonist activity at OX2R (unknown origin) by cell-based calcium assay.

SMILES strings stand for the structures.

The term Ki denotes a measure of affinity in units of concentration, obtained from inhibition or displacement. In general, IC50 refers to the concentration that gives 50% inhibition. Take `COc1ccc2c3c1O[C@H]1[C@H](N(C)C(=O)/C=C/c4ccoc4)CC[C@@]4(O)[C@@H](C2)N(S(=O)(=O)c2ccccc2)CC[C@]314`: the Ki in experiment [1] amounted to 16.8 nM. For the same molecule, the IC50 in experiment [2] was over 10000 nM.
`COc1ccc2c3c1O[C@H]1[C@H](N(C)C(=O)/C=C/c4ccoc4)CC[C@@]4(O)[C@@H](C2)N(S(=O)(=O)c2ccccc2N(C)C)CC[C@]314`: the Ki in experiment [1] came to 4.75 nM; in experiment [2] it was 1300 nM.
Regarding `COc1ccc2c3c1O[C@H]1[C@H](N(C)C(=O)/C=C/c4ccoc4)CC=C4[C@@H](C2)N(S(=O)(=O)c2ccccc2)CC[C@]431`, in experiment [1], the Ki came out at 2.34 nM. Besides, in experiment [2], the IC50 is over 10000 nM.
As for `COc1ccc2c3c1O[C@H]1[C@H](N(C)C(=O)/C=C/c4ccoc4)CC[C@H]4[C@@H](C2)N(S(=O)(=O)c2ccccc2)CC[C@@]341`, the Ki in experiment [1] stood at 23.6 nM. The IC50 in experiment [2] is over 10000 nM.
On to `COc1ccc2c3c1O[C@H]1[C@H](N(C)C(=O)/C=C/c4ccoc4)CC[C@H]4[C@@H](C2)N(S(=O)(=O)c2ccccc2N(C)C)CC[C@@]341`, for which, in experiment [1], the Ki was 53.5 nM. Besides, the IC50 in experiment [2] is over 10000 nM.
With `COc1ccc2c3c1O[C@H]1[C@H](N(C)C(=O)/C=C/c4ccoc4)CC=C4[C@@H](C2)N(S(=O)(=O)c2ccccc2N(C)C)CC[C@]431`, the Ki in experiment [1] came to 8.82 nM. Also, the IC50 in experiment [2] was over 10000 nM.
